Patent US20150072933A1, “NOVEL SEQUENCES FOR THE CONTROL OF REPRODUCTION IN FISH” (Yissum Research Development Company of the Hebrew …, priority 2011, published 2015)
Entries after “also recorded” stand apart in the source; their conditions may differ. *1 amine or outer side, *2 acyl side, *3 side chain or, on linkers, in order; H or OH if unused. Where a SMILES comes first, the peptide text is derived from it. [ ]: non-standard residue; d: D form. NMeF = CN[C@@H](Cc1ccccc1)C(=O)O; Suc = O=C(CCC(=O)[*:2])[*:1]; NMeV = CN[C@H](C(=O)O)C(C)C

What was measured:
zfTac3rb [1] = assay: Receptor transactivation assay, CRE-Luc reporter (PKA activation), COS-7 cells expressing zfTac3rb; type: cell-based, zebrafish; settings: mean ± SEM
Protocol: (§1) In order to study the signaling pathways of the novel zebrafish NKBs, the entire coding regions of zftac3ra (denoted by SEQ ID NO:6) or zftac3rb (denoted by SEQ ID NO:7), or the cDNA clone for human NK3R (obtained from the Missouri S&T cDNA Resource Center, were inserted into pcDNA3.1 (Invitrogen). The luciferase assay was conducted according to Biran et al., 2008 [4] COS-7 cells were grown in DMEM supplemented with 10% FBS, 1% glutamine, 100 U/ml penicillin, and […] streptomycin (Biological Industries) under 5% CO2 until confluent. Cotransfection of either pc-zftac3ra, pc-zftac3rb or pc-Htac3r (at 3 μg/plate), a reporter plasmid (at 2 μg/plate), and pCMV-β-galactosidase (at 1 μg/plate) was carried out with FuGENE 6.0 reagent (Roche). The cells were serum starved for 36 h, stimulated with vehicle or various concentrations of either human (Sigma) or zebrafish NKBs for 6 h, and then harvested and analyzed. Lysates prepared from the harvested cells were assayed for both luciferase activity and β-galactosidase activity, which was used as an internal standard to normalize the luciferase activity directed by the test plasmid. Transfection experiments were performed in triplicate with three independently isolated sets. Protein structure prediction of zebrafish NKBa, NKBb or NKF were performed on I-Tasser servers.
(§2) The response, binding selectivity and signal transduction pathways of the novel tachykinin receptors to their agonists were evaluated by functional expression analysis, using COS-7 cells.
(§3) The NKB analogues (i.e. the NKBa-analog, NKBb-analog and NKF-analog, as denoted by SEQ ID NO. 44-46) were first analyzed in comparison to their native forms in a transactivation assay, using reporter genes for specific signal transduction pathways. To validate the specificity of the serum-responsive element (SRE)-Luc and cAMP-responsive element (CRE)-Luc reporter systems, specific activators for PLC/PKC and AC/PKA signaling pathways were used in control experiments.
(§4) Thus, the ability of the three novel piscine peptides (namely, NKBa, NKBb and NKF, denoted by SEQ ID NO.40, 41 and 42), as well as the ability of the three analogous agonistic peptides, namely, NKBa-analog, NKBb-analog and NKF-analog, to differentially activate the different tac3 receptors, using SRE as a reporter gene that follows PKC activation and CRE as a reporter gene for the PKA pathway, was tested. Human NK3R (human NKB receptor) and human NKB served as controls.

zfTac3ra [2] = assay: Receptor transactivation assay, SRE-Luc reporter (PKC activation), COS-7 cells expressing zfTac3ra; type: cell-based, zebrafish; settings: mean ± SEM
Protocol: as §1, §2, §3, §4

zfTac3rb [3] = assay: Receptor transactivation assay, SRE-Luc reporter (PKC activation), COS-7 cells expressing zfTac3rb; type: cell-based, zebrafish; settings: mean ± SEM
Protocol: as §1, §2, §3, §4

zfTac3ra [4] = assay: Receptor transactivation assay, CRE-Luc reporter (PKA activation), COS-7 cells expressing zfTac3ra; type: cell-based, zebrafish; settings: mean ± SEM
Protocol: as §1, §2, §3, §4

NK-2 = settings: GPI; cited from earlier work
[5] = system: sexually mature female zebrafish; assay: In vivo effect of NKBs in zebrafish: LH secretion after intraperitoneal injection; settings: single intraperitoneal injection, 20 pmol/g body weight, sexually mature female zebrafish
Protocol: In vivo studies involved administering NKBa, NKBb or NKF and the analogues thereof, denoted by SEQ ID NO. 40-42 and 44-46, respectively to immature fish (20 fish/treatment). The circulating levels of E2, 11KT, LH and FSH were determined prior to hormonal manipulations, in order to confirm that these fish were indeed sexually immature. The fish were injected intramuscularly (i.m.) or intraperitonealy (i.p.) at various doses. Adult female zebra fish were injected intraperitoneally with 20 pmol/g body weight. Control fish were injected with saline. Plasma samples were collected at time 0, and specific times after the administration of the peptide/s, to determine the levels of E2, 11KT, LH and FSH.
To further characterize the role of the NKB/NKBR system in fish reproduction the in vivo biological function of zebrafish NKB peptides was next examined.

Juvenile Tilapia = assay: Gonadotropin release in vivo from juvenile tilapia (plasma LH and FSH by ELISA); set-up: species or system Tilapia (Oreochromis niloticus); settings: for FSH secretion / LH secretion: Juvenile Tilapia, injected at 0.5 or 5 μg/Kg BW
Protocol: Tilapia females (two-months old) were injected with the NKBa analogue denoted by SEQ ID NO.44 or the NKF analogue denoted by SEQ ID NO.46 at 0.5 or 5 μg/kg body weight (BW). Blood was withdrawn from the caudal vein and plasma Luteinizing hormone (LH) and Follicle-stimulating hormone (FSH) levels were measured using a homologous sensitive enzyme-linked immunosorbent assay (ELISA), as described by Aizen et al. 2007 [33].

Tilapia pituitary cells = assay: Gonadotropin release from tilapia pituitary dispersed cells; type: cell-based; settings: 10 nM, 4 hr
Protocol: Tilapia pituitary cells were subjected to enzymatic dispersion. Pituitary cells were stimulated with 10 nM of the NKBa or NKF analogue, denoted by SEQ ID NO.44 and SEQ ID NO.46, respectively, for 4 hr, when the medium was collected. […] Stimulation of tilapia pituitary cells with GnRH at [10 nM] was used as a control.

Mature female carp = assay: Gonadotropin release from mature carp in vivo (LH by ELISA); settings: for LH level: mature female carp just before spawning, injected 20 μg/kg body weight
Protocol: Mature female carp, just before spawning, were injected with NKBa, NKBb and NKF analogues, denoted by SEQ ID NO.44, SEQ ID NO.45 and SEQ ID NO.46, respectively (20 μg/kg body weight). LH levels was measured by specific ELISA, according to Aizen et al. 2012 [33].

huNK3R = target: T1, huNK3R (Homo sapiens, UniProt P29371); assay: Receptor transactivation assay, SRE-Luc reporter (PKC activation), COS-7 cells expressing human NK3R; type: cell-based
T1 construct: host or cells: COS-7
T1 sequence (P29371 1-465): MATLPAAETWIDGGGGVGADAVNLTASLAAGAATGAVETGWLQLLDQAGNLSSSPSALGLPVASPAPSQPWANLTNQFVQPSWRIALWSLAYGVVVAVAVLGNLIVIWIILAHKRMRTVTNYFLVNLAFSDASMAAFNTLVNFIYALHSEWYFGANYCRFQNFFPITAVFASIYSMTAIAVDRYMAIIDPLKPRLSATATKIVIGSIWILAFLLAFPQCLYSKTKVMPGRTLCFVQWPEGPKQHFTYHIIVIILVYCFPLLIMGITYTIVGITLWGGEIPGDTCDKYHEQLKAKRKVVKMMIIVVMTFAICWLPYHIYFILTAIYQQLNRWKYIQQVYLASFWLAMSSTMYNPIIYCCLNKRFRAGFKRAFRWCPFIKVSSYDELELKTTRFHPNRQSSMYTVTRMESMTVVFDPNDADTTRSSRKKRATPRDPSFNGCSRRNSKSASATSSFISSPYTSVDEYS
Protocol: In order to study the signaling pathways of the novel zebrafish NKBs, the entire coding regions of zftac3ra (denoted by SEQ ID NO:6) or zftac3rb (denoted by SEQ ID NO:7), or the cDNA clone for human NK3R (obtained from the Missouri S&T cDNA Resource Center, were inserted into pcDNA3.1 (Invitrogen). The luciferase assay was conducted according to Biran et al., 2008 [4] COS-7 cells were grown in DMEM supplemented with 10% FBS, 1% glutamine, 100 U/ml penicillin, and 100 mg/ml streptomycin (Biological Industries) under 5% CO2 until confluent. Cotransfection of either pc-zftac3ra, pc-zftac3rb or pc-Htac3r (at 3 μg/plate), a reporter plasmid (at 2 μg/plate), and pCMV-β-galactosidase (at 1 μg/plate) was carried out with FuGENE 6.0 reagent (Roche). The cells were serum starved for 36 h, stimulated with vehicle or various concentrations of either human (Sigma) or zebrafish NKBs for 6 h, and then harvested and analyzed. Lysates prepared from the harvested cells were assayed for both luciferase activity and β-galactosidase activity, which was used as an internal standard to normalize the luciferase activity directed by the test plasmid. Transfection experiments were performed in triplicate with three independently isolated sets.

[6] = system: NKB receptors (human NKBR, zebrafish Tac3ra, Tac3rb); assay: Receptor transactivation assay, statements in words across SRE-Luc and CRE-Luc reporters and receptors; type: cell-based
Protocol: as §1, §2, §4

[7] = target: T2, NKB receptors (human NKBR, zebrafish Tac3ra, Tac3rb) (Homo sapiens, UniProt P29371); assay: as above; type: cell-based; settings: human NKBR (huNK3R), in both signal transduction systems (SRE-Luc and CRE-Luc)
T2 construct: expressed in transfected cells; host or cells: COS-7
T2 sequence (P29371 1-465): T1 sequence (P29371 1-465)
Protocol: as §1, §2, §4

[8] = Table 5, COS-7 cells, CRE-Luc follows PKA activation, read-out: EC50 CRE-Luc zfTac3rb
[9] = Table 6 (native peptides and analogues), PKA activation, read-out: EC50 using CRE-Luc, zfTac3rb
[10] = Table 5, COS-7 cells, SRE-Luc follows PKC activation, read-out: EC50 SRE-Luc zfTac3ra
[11] = Table 7 (native peptides and analogues), PKC activation, read-out: EC50 using SRE, zfTac3ra
[12] = Table 5, COS-7 cells, SRE-Luc follows PKC activation, read-out: EC50 SRE-Luc zfTac3rb
[13] = Table 7 (native peptides and analogues), PKC activation, read-out: EC50 using SRE, zfTac3rb
[14] = Table 5, COS-7 cells, CRE-Luc follows PKA activation, read-out: EC50 CRE-Luc zfTac3ra
[15] = Table 6 (native peptides and analogues), PKA activation, read-out: EC50 using CRE-Luc, zfTac3ra
[16] = tilapia females two-months old, injected 5 μg/kg BW, listed as NKF analogue

Row | Compound | EC50 (zfTac3rb [1]; [8]) | EC50 (zfTac3rb [1]; [9]) | EC50 (zfTac3ra [2]; [10]) | EC50 (zfTac3ra [2]; [11]) | EC50 (zfTac3rb [3]; [12]) | EC50 (zfTac3rb [3]; [13]) | EC50 (zfTac3ra [4]; [14]) | EC50 (zfTac3ra [4]; [15]) | LH secretion [5] | FSH secretion (Juvenile Tilapia) | LH secretion (Juvenile Tilapia) | release of FSH from tilapia pituitary cells (Tilapia pituitary cells) | further results
1 | CSCC[C@H](NC(=O)[C@H](CC(C)C)NC(=O)CNC(=O)[C@H](Cc1ccccc1)N(C)C(=O)[C@H](Cc1ccccc1)NC(=O)[C@H](CC(=O)O)NC(=O)CCC(=O)O)C(N)=O [Senktide, Succ-Asp-Phe-N(Me)Phe-Gly-Leu-Met-NH2, reference compound] (Suc-DF[NMeF]GLM-NH2) | 0.0201 ± 0.0151 µM | 0.0201 ± 0.0151 µM | 0.00267 ± 0.00144 µM | 0.00268 ± 0.00144 µM | 0.00272 ± 0.00154 µM | 0.00272 ± 0.00154 µM | 0.049 ± 0.0149 µM | 0.049 ± 0.0149 µM | less pronounced | – | – | – | EC50 (NK-2): > 200 µM
2 | CC[C@H](C)[C@H](NC(=O)[C@H](CC(=O)O)NC(=O)CCC(=O)O)C(=O)N[C@@H](Cc1ccccc1)C(=O)N(C)[C@H](C(=O)NCC(=O)N[C@@H](CC(C)C)C(=O)N[C@@H](CCSC)C(N)=O)C(C)C [zfNKBa-analog, Succ-Asp-Ile-Phe-N(Me)Val-Gly-Leu-Met-NH2] (Suc-DIF[NMeV]GLM-NH2) | – | 0.0119 ± 0.0169 µM | – | 0.00015 ± 0.00019 µM | – | 0.00029 µM | – | 0.00694 ± 0.00128 µM | – | significant increase | significant increase | significantly increased | EC50 (zfTac3rb [1]; Table 6 (native peptides and analogues), PKA activation, listed as NKBa-analog, read-out: EC50 using CRE-Luc, zfTac3rb): 0.0119 µM; LH level (Mature female carp; listed as NKBa analogue): significant elevation; also recorded: increased the level of LH significantly
3 | CC[C@H](C)[C@H](NC(=O)CNC(=O)[C@@H](NC(=O)[C@@H](N)CO)[C@@H](C)O)C(=O)N[C@@H](CC(N)=O)C(=O)N[C@@H](CCCNC(=N)N)C(=O)N[C@@H](CCC(=O)O)C(=O)N[C@@H](C)C(=O)N[C@@H](Cc1c[nH]cn1)C(=O)N[C@@H](CC(C)C)C(=O)N1CCC[C@H]1C(=O)N[C@@H](Cc1ccccc1)C(=O)N[C@@H](CCCNC(=N)N)C(=O)N1CCC[C@H]1C(=O)N[C@@H](CC(N)=O)C(=O)N[C@@H](CCSC)C(=O)N[C@@H](CC(N)=O)C(=O)N[C@@H](CC(=O)O)C(=O)N[C@H](C(=O)N[C@@H](Cc1ccccc1)C(=O)N[C@H](C(=O)NCC(=O)N[C@@H](CC(C)C)C(=O)N[C@@H](CC(C)C)C(N)=O)C(C)C)[C@@H](C)CC [zfNKBb] (H-STGINREAHLPFRPNMNDIFVGLL-NH2; N-terminus assumed) | 0.519 ± 0.16 µM | 0.191 µM | 0.00896 ± 0.00119 µM | 0.00606 µM | 0.0338 ± 0.0147 µM | 0.0153 ± 0.0183 µM | 0.237 ± 0.134 µM | 0.0996 ± 0.0129 µM | significant increase; also recorded: less pronounced | – | – | – | SRE-driven luciferase activity, response (huNK3R; COS-7 cells transiently transfected with human NK3R): lowest effect; EC50 (huNK3R; Table 5, COS-7 cells, SRE-Luc follows PKC activation, mean ± SEM): 0.204 ± 0.139 µM; EC50 (zfTac3rb [3]; Table 7 (native peptides and analogues), PKC activation, listed as NKBb, read-out: EC50 using SRE, zfTac3rb): 0.0153 µM; EC50 (zfTac3ra [4]; Table 6 (native peptides and analogues), PKA activation, listed as NKBb, read-out: EC50 using CRE-Luc, zfTac3ra): 0.0996 µM; luciferase activity ([6]; both SRE-Luc and CRE-Luc, both signal transduction pathways): less effective than the other forms; activation of the piscine NKB receptors ([6]; zebrafish tac3ra and tac3rb, FIGS. 11A, B, D, E): lowest effect; potency [7]: relatively low potency
4 | CSCC[C@H](NC(=O)[C@H](CC(C)C)NC(=O)CNC(=O)[C@H](C(C)C)N(C)C(=O)[C@H](Cc1ccccc1)NC(=O)[C@H](CO)NC(=O)[C@H](CC(=O)O)NC(=O)CCC(=O)O)C(N)=O [zfNKF-analog, Succ-Asp-Ser-Phe-N(Me)Val-Gly-Leu-Met-NH2] | – | 0.00775 µM | – | 0.00031 µM | – | 0.00054 ± 0.00039 µM | – | 0.00914 ± 0.00127 µM | – | significant increase | significant increase | significantly increased | plasma FSH level (Juvenile Tilapia; [16]): significant increase; also recorded: increased significantly; plasma LH level (Juvenile Tilapia; [16]): significant increase; LH level (Mature female carp; listed as NKF analogue): significant elevation; also recorded: increased the level of LH significantly; persistence of the LH effect (Mature female carp; mature female carp, 20 μg/kg body weight, throughout the experiment): remained constant throughout the experiment
